Assay results from patent US20170042148A1, “USE OF A DICARBOXYLIC ACID TO CONTROL THE GROWTH OF HOLOPARASITIC OR HEMIPARASITIC PLANTS” (UNIVERSITE CLAUDE BERNARD LYON I, priority 2014, published 2017).

Experiments:
[1] = system: Striga hermontica; experiment: Herbicidal effect on Striga hermontica growth in a microtiter plate (procaulome length); type: in vivo; details: for Striga inhibition: 2 mg/mL of buffer, procaulome size after 3 days at 30° C. with GR24
Method: The activity of the diacids on the parasitic plants Striga and Orobanche was tested by preparing solutions of the selected diacid in water or in phosphate buffer (50 mM, pH 7) at concentrations of 1 to 20 mg/mL.
1. In a 12-well microtiter plate, filter papers (Whatman 3) are placed at the bottom of the wells and moistened with sterile water. About 30 sterilized seeds (rinsed with 70% ethanol, then 1% (w/v) Ca(ClO)2 and Tween® 20, then thoroughly with water) of the holo- or hemiparasitic plants are placed, in each well, on the surface of the filter papers. After 10 days of incubation at 30° C. and in the dark, increasing amounts of a diacid or of culture supernatant are added, in the presence of a germination stimulant, GR24. After 3 days of incubation at 30° C., the development of the parasitic plants in the presence of a diacid or of culture supernatant is compared to the negative control (water, phosphate buffer or sterile culture medium), with a macroscope coupled to a camera. The length of the procaulomes (radicles) of the holo- or hemiparasitic plants is measured in order to express the phytotoxic capacity of the tested products.

[2] = system: Striga hermontica; experiment: Emergence of Striga seedlings in soil mesocosms with sorghum; type: in vivo; details: soil mesocosm with sorghum, after 2 months
Method: 2. Striga hermontica seeds (about 100 seeds/pot) and sorghum seeds (1 seed/pot) were introduced simultaneously into soil mesocosms, in the presence of increasing amounts of malic acid (2 and 20 g/L) or of culture supernatant, then grown in a greenhouse or a plot. The emergence of Striga seedlings is estimated visually, after 2 months of incubation. Phytotoxic capacity is estimated by comparison with a control without added malic acid or culture supernatant. A decrease of 22% in the number of Striga seedlings having emerged, compared to the control condition, is observed in the presence of 2 g/L malic acid and of 90% in the presence of 20 g/L malic acid. In the presence of the bacterial supernatant, a decrease of 58% in the number of Striga compared to the control condition was observed.

| Structure (SMILES) | Striga inhibition [1] | further results |
| --- | --- | --- |
| O=C(O)CC(O)C(=O)O (racemic) [DL-Malic acid] | + (weak inhibition (procaulome size between 0.2 and 0.8 mm)) | – |
| O=C(O)C#CC(=O)O [Acetylene dicarboxylic acid] | ++ (strong inhibition (procaulome size < 0.2 mm)) | – |
| O=C(O)CCCC(=O)O [Glutaric acid] | ++ (strong inhibition (procaulome size < 0.2 mm)) | – |
| O=C(O)C[C@H](O)C(=O)O [L-Malic acid] | ++ (strong inhibition (procaulome size < 0.2 mm)) | effect on procaulome growth (FIG. 1) ([1]; supernatant of strain grown in Nfb*, L-malic acid 2 mg/mL in phosphate buffer): inhibitory effect |
| O=C(O)/C=C\C(=O)O [Maleic acid] | ++ (strong inhibition (procaulome size < 0.2 mm)) | – |
| O=C(O)CC(=O)O [Malonic acid] | ++ (strong inhibition (procaulome size < 0.2 mm)) | – |
| O=C(O)C(=O)O [Oxalic acid] | ++ (strong inhibition (procaulome size < 0.2 mm)) | – |
| O=C(O)CC(O)C(=O)O (stereo not shown) [malic acid] | – | decrease in the number of Striga seedlings having emerged, compared to the control condition ([2]; 2 g/L malic acid): 22%; decrease in the number of Striga seedlings having emerged, compared to the control condition ([2]; 20 g/L malic acid): 90% |
